The target of assay [1] is Adenosine A2A receptor (Tag-lite Adenosine A2A labeled cells) (Homo sapiens (Human), UniProt P29274). The assay can be described thus: A2A Tag-lite HTRF assay (fluorescent ligand displacement). Conditions: Red antagonist fluorescent ligand 12.5 nM, one-site competitive binding model, read-out: A2A_Ki. The text has this:
Example C. A2A Tag-Lite® HTRF Assay
The final concentration of DMSO was 1%.
Background: TR-FRET usually uses a lanthanide donor and a delayed reading to cut background.

For assay [2], the target named is human adenosine A2B receptor (Homo sapiens (Human), UniProt P29275). In words: Adenosine A2B Receptor Cyclic AMP GS Assay. The assay is classed as cell-based. Conditions: HEK-293 cells expressing human A2B; agonist NECA 12 nM; cAMP accumulation by FRET; read-out: A2B_cAMP_EC50. On the procedure:
Example B. Adenosine A2B Receptor Cyclic AMP GS Assay Stably transfected HEK-293 cells expressing the human adenosine A2B receptor (Perkin Elmer) were maintained in MEM culture medium with 10% FBS and 100 μg/ml Geneticin (Life Technologies). 18 to 24 hours prior to assay, geneticin was removed from culture. The cisbio cAMP-GS Dynamic kit utilizing the FRET (Fluorescence Resonance Energy Transfer) technology was used to measure cAMP accumulation in the cells. Compounds of the present disclosure at an appropriate concentration were mixed with 10000 cells/well in white 96 well half area plates (Perkin Elmer) for 30 min at room temperature gently shaking. Agonist, NECA (R&D Technologies) at 12 nM was added to each well for 60 min at room temperature gently shaking. Detection reagents, d2-labeled cAMP (acceptor) and anti-cAMP cryptate (donor) were added to each well for 60 min at RT gently shaking. Plates were read on Pherastar (BMG Labtech), fluorescence ratio 665/620 was calculated and EC50 determination was performed by fitting the curve of percent of control versus the log of the compound concentration using GraphPad Prism.
In general terms: Changes in cAMP serve as a functional read-out for many G protein-coupled receptors.

Sequence of Adenosine A2A receptor (Tag-lite Adenosine A2A labeled cells) (P29274 whole entry): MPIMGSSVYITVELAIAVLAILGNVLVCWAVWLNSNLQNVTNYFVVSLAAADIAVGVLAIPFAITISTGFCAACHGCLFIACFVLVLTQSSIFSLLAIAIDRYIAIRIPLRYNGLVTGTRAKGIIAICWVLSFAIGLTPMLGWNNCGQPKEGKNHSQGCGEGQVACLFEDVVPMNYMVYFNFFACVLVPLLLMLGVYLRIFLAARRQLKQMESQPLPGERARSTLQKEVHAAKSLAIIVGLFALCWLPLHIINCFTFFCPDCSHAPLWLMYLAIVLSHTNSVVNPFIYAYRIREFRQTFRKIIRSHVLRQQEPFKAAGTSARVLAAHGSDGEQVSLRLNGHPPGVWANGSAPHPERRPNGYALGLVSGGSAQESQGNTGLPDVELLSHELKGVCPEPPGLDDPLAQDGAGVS
Sequence of human adenosine A2B receptor (P29275 whole entry): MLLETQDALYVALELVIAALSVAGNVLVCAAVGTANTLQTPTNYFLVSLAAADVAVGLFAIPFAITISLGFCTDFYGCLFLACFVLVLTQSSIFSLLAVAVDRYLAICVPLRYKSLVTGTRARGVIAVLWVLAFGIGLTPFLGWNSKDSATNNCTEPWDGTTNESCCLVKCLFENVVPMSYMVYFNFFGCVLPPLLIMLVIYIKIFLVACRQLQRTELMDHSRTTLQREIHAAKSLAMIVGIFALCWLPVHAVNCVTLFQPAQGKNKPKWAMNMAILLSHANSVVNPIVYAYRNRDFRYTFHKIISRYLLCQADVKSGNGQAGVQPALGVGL

Regarding `CCCCn1c2cc(-c3cnn(C4CN(c5nccc(OC)n5)C4)c3)[nH]c2c(=O)n2c(C)nnc12` [Example 27, 9-Butyl-7-(1-(1-(4-methoxypyrimidin-2-yl)azetidin-3-yl)-1H-pyrazol-4-yl)-3-methyl-6,9-dihydro-5H-pyrrolo[3,2-d][1,2,4]triazolo[4,3-a]pyrimidin-5-one], the Ki in assay [1] is less than 10 nM. Besides, the EC50 in assay [2] lay in the range of 10 to 100 nM.

Consider `CCCCCn1c2cc(-c3ccc(S(=O)(=O)Nc4ccc(C)cc4)cc3)[nH]c2c(=O)n2c(C)nnc12` [Example 11, 4-(3-Methyl-5-oxo-9-pentyl-6,9-dihydro-5H-pyrrolo[3,2-d][1,2,4]triazolo[4,3-a]pyrimidin-7-yl)-N-p-tolylbenzenesulfonamide], for which, in assay [1], the Ki lay in the range of 10 to 100 nM.

With `CCCCCn1c2cc[nH]c2c(=O)n2c(C)nnc12` [Example 1, 3-Methyl-9-pentyl-6,9-dihydro-5H-pyrrolo[3,2-d][1,2,4]triazolo[4,3-a]pyrimidin-5-one], the Ki in assay [1] was 100 to 1000 nM.

With `CCCCCn1c2cc(-c3cnn(Cc4cnc5cnn(C)c5c4)c3)[nH]c2c(=O)n2c(C)nnc12` [Example 7, 3-Methyl-7-(1-((1-methyl-1H-pyrazolo[4,3-b]pyridin-6-yl)methyl)-1H-pyrazol-4-yl)-9-pentyl-6,9-dihydro-5H-pyrrolo[3,2-d][1,2,4]triazolo[4,3-a]pyrimidin-5-one], the Ki in assay [1] is less than 10 nM. For the same compound, the EC50 in assay [2] was 10 to 100 nM.

In the case of `CCCCCn1c2cc(-c3cnn(C4CN(c5nccc(NCCO)n5)C4)c3)[nH]c2c(=O)n2c(C)nnc12` [Example 22, 7-(1-(1-(4-(2-Hydroxyethylamino)pyrimidin-2-yl)azetidin-3-yl)-1H-pyrazol-4-yl)-3-methyl-9-pentyl-6,9-dihydro-5H-pyrrolo[3,2-d][1,2,4]triazolo[4,3-a]pyrimidin-5-one], in assay [1], the Ki is less than 10 nM. Moreover, in assay [2], the EC50 was 10 to 100 nM.

As to `CCCCCn1c2cc(-c3cnn(Cc4cnc5ccsc5c4)c3)[nH]c2c(=O)n2c(C)nnc12` [Example 4, 3-Methyl-9-pentyl-7-(1-(thieno[3,2-b]pyridin-6-ylmethyl)-1H-pyrazol-4-yl)-6,9-dihydro-5H-pyrrolo[3,2-d][1,2,4]triazolo[4,3-a]pyrimidin-5-one], the Ki in assay [1] was less than 10 nM. Moreover, in assay [2], the EC50 is less than 10 nM.

Consider `CCCCCn1c2c(C)c[nH]c2c(=O)n2c(C)nnc12` [Example 14, 3,8-Dimethyl-9-pentyl-6,9-dihydro-5H-pyrrolo[3,2-d][1,2,4]triazolo[4,3-a]pyrimidin-5-one], for which, in assay [1], the Ki is 100 to 1000 nM.

Take `CCCCCn1c2cc[nH]c2c(=O)n2c(C)cnc12` [Example 18, 7-Methyl-4-pentyl-1H-imidazo[1,2-a]pyrrolo[3,2-d]pyrimidin-9(4H)-one]: the Ki in assay [1] fell in the range of 10 to 100 nM.

Regarding `CCCCCn1c2c(-c3ccccc3)c[nH]c2c(=O)n2c(C)nnc12` [Example 15, 3-Methyl-9-pentyl-8-phenyl-6,9-dihydro-5H-pyrrolo[3,2-d][1,2,4]triazolo[4,3-a]pyrimidin-5-one], the Ki in assay [1] fell in the range of 100 to 1000 nM.

As for `CCCCCn1c2cc(-c3cnn(Cc4ccccc4)c3)[nH]c2c(=O)n2c(C)nnc12` [Example 10, 7-(1-Benzyl-1H-pyrazol-4-yl)-3-methyl-9-pentyl-6,9-dihydro-5H-pyrrolo[3,2-d][1,2,4]triazolo[4,3-a]pyrimidin-5-one], the Ki in assay [1] is less than 10 nM.

For the compound `CCCCCn1c2c(Br)c[nH]c2c(=O)n2c(C)nnc12` [Example 13, 8-Bromo-3-methyl-9-pentyl-6,9-dihydro-5H-pyrrolo[3,2-d][1,2,4]triazolo[4,3-a]pyrimidin-5-one], the Ki in assay [1] fell in the range of 10 to 100 nM.

On to `CCCCCn1c2c(-c3cnn(Cc4ccccc4)c3)c[nH]c2c(=O)n2c(C)nnc12` [Example 17, 8-(1-Benzyl-1H-pyrazol-4-yl)-3-methyl-9-pentyl-6,9-dihydro-5H-pyrrolo[3,2-d][1,2,4]triazolo[4,3-a]pyrimidin-5-one], for which the Ki in assay [1] fell in the range of 100 to 1000 nM.

With `CCCCCn1c2c(C#N)c[nH]c2c(=O)n2c(C)nnc12` [Example 16, 3-Methyl-5-oxo-9-pentyl-6,9-dihydro-5H-pyrrolo[3,2-d][1,2,4]triazolo[4,3-a]pyrimidine-8-carbonitrile], the Ki in assay [1] was in the range of 100 to 1000 nM.

These data come from patent publication US11220510B2, “Pyrrole tricyclic compounds as A2A / A2B inhibitors” (Incyte Corporation, priority 2018, dated 2022).
